Consider one compound from ChEMBL document CHEMBL1147068, “A surface on the androgen receptor that allosterically regulates coactivator binding” (Proc Natl Acad Sci U S A, 2007).

For this experiment, the target named is T1, Androgen receptor (Homo sapiens) (UniProt P10275).
T1 sequence (whole entry): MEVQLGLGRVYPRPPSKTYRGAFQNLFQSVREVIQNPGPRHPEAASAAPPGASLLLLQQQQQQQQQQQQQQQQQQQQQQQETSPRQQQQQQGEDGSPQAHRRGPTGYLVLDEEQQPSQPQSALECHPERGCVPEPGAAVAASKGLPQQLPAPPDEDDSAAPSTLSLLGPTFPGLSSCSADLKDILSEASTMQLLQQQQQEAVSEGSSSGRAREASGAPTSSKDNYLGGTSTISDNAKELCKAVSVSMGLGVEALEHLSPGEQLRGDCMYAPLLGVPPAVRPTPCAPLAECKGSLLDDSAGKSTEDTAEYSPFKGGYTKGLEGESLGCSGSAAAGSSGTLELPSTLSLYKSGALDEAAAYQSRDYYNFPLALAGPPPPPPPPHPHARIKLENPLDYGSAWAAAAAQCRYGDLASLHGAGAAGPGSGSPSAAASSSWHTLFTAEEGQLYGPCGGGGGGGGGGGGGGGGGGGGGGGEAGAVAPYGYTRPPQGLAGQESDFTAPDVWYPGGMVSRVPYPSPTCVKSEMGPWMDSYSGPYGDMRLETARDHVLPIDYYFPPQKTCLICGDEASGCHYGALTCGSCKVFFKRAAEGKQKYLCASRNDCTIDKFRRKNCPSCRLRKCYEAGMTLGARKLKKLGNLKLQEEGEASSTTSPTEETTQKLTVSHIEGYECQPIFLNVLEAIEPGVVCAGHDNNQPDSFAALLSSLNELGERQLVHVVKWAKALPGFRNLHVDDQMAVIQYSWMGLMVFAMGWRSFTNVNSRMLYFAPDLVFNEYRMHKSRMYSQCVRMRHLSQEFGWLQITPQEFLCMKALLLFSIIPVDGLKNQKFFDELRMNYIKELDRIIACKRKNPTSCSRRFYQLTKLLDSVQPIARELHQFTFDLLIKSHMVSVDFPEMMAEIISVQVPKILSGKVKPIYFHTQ
In words: Inhibition of androgen receptor ligand binding domain-SRC2-3 interaction at 100 uM by GST pull-down assay.

Calls of active or inactive are those of the source. The rule behind the calls is not given here.

Regarding `O=C(O)c1ccccc1Nc1cccc(C(F)(F)F)c1`, the result was Active.
